“Also recorded” adds a separate entry of the source.
Tested on: lung tumors in Grg1 transgenic mice
Test: Tumor development in Grg1 transgenic mouse model of non-small cell lung cancer
Format: in vivo
Conditions: for tumors visible on whole lung lobes: 3 month mice after 4 weeks of treatment (FIG. 8); for average number of surface tumors per mouse: abexinostat 12 mg/kg BID i.p., ibrutinib ~22 mg/kg/day in drinking water; for tumor histology in lung tissue sections: 6 month mice after 4 weeks of treatment; for tumors visible on whole left lung lobes: 6 month mice after 4 weeks of treatment (FIG. 7); for average number of large tumors (over 1 mm in diameter) per mouse: 6 month samples, tissue sections of left lung lobe
Protocol: The aim of the experiment is to evaluate the effect of two drugs on tumor development in a mouse model of non-small cell lung cancer.
Grg1 transgenic mice were used to evaluate the drugs. Grg1 transgenic mice overexpress the Groucho-related gene 1 (Grg1). The mice develop lung tumors that resemble human non-small cell lung cancer. Tumors initiate at 1 month of age and progress to invasive adenocarcinoma by 8 months of age. The drugs were administered to 2 month-old mice or to 5 month-old mice, and mice were treated for 4 weeks. The former group is referred to as the 3 month samples and the latter as the 6 month samples.
Mice were bred to generate double transgenic (Grg1/Cre recombinase) mice on a CD1 background. Four groups of female double transgenic mice were established:
At least 8 mice in each group were treated at 2 months old and 8 mice in each group were treated at 5 months old. Treatments lasted 4 weeks, and mice were sacrificed at 3 months and 6 months. Therefore samples are referred to as 3 month samples or 6 month samples.
Abexinostat was administered by intraperitoneal (i.p.) injection, twice per day for five days each week. Mice were weighed and injected with 6 μl per gram body weight of a 1 mg/ml solution. The dosage was 12 mg/kg BID.
Mice were treated for 4 weeks. After treatment, mice were euthanized and lung tissue was examined.
For quantitation of tumors, the total visible tumors on the lung surface were counted using a dissecting microscope. In addition, the left lung lobe was fixed in 4% PFA, paraffin-embedded and 5 μm sections were taken for 100 μm at two levels. The first level began 30 μm below the lung surface and the second level began 130 μm below the lung surface. Alternate slides were H&E stained, and tumors were detected and counted using a dissecting microscope. Tumor diameter was measured using an inverted microscope and reticule.

[1] = 3 month samples: treated 4 weeks from 2 months
[2] = 6 month samples: treated 4 weeks from 5 months

SMILES	tumors visible on whole lung lobes	average number of surface tumors per mouse [1]	tumor histology in lung tissue sections	tumors visible on whole left lung lobes	average number of large tumors (over 1 mm in diameter) per mouse	average number of surface tumors per mouse [2]	tumor diameter in 6 month sections (6 month sections (FIG. 9))
C=CC(=O)N1CCC[C@@H](n2nc(-c3ccc(Oc4ccccc4)cc3)c3c(N)ncnc32)C1 [Ibrutinib, (R)-1-(3-(4-amino-3-(4-phenoxyphenyl)-1H-pyrazolo[3,4-d]pyrimidin-1-yl)piperidin-1-yl)prop-2-en-1-one]	one small tumor is visible	2.6	lack the high number of apoptotic macrophages; also recorded: less tumor necrosis than the control samples; also recorded: lymphocyte infiltration but not the apoptotic macrophages seen in the control and in Abexinostat-treated mice	medium and small tumors are visible	0.5	7.6	no small tumors in Ib-treated sections, just one large tumor
CN(C)Cc1c(C(=O)NCCOc2ccc(C(=O)NO)cc2)oc2ccccc12 [Abexinostat, 3-[(dimethylamino)methyl]-N-{2-[4-(hydroxycarbamoyl)phenoxy]ethyl}-1-benzofuran-2-carboxamide]	one small tumor is visible	3.0	high number of apoptotic cells; also recorded: lymphocyte infiltration, necrosis and large areas with apoptotic cells	medium and small tumors are visible	0.5	4.6	–

From patent US9421208B2, “Methods for the treatment of solid tumors” (Pharmacyclics LLC, priority 2013, dated 2016)
